Measurements reported in PMC11094368, “Modulating mycobacterial envelope integrity for antibiotic synergy with benzothiazoles” (Life Science Alliance, 2024).

Key:
Experiment in all cases: microbe, parasite or virus in culture
[1] = tested on: T1, Acinetobacter baumannii 1757; set-up: species or system E. coli, B. subtilis, K. pneumoniae, A. baumannii; bacterial growth inhibition in LB, twofold dilutions, OD600 tracking; conditions: Acinetobacter baumannii, 1757, read-out: MIC50
T1 construct: 1757

[2] = tested on: T2, Acinetobacter baumannii LMG01041; set-up: species or system E. coli, B. subtilis, K. pneumoniae, A. baumannii; bacterial growth inhibition in LB, twofold dilutions, OD600 tracking; conditions: Acinetobacter baumannii, LMG01041, read-out: MIC50
T2 construct: LMG01041

Bacillus subtilis 168 = tested on: T3, Bacillus subtilis 168; set-up: species or system E. coli, B. subtilis, K. pneumoniae, A. baumannii; bacterial growth inhibition in LB, twofold dilutions, OD600 tracking; conditions: Bacillus subtilis, 168, read-out: MIC50
T3 construct: 168

Escherichia coli K12 = tested on: T4, Escherichia coli K12; set-up: species or system E. coli, B. subtilis, K. pneumoniae, A. baumannii; bacterial growth inhibition in LB, twofold dilutions, OD600 tracking; conditions: Escherichia coli, K12, read-out: MIC50
T4 construct: K12

[3] = tested on: T5, Klebsiella pneumoniae LMG20218; set-up: species or system E. coli, B. subtilis, K. pneumoniae, A. baumannii; bacterial growth inhibition in LB, twofold dilutions, OD600 tracking; conditions: Klebsiella pneumoniae, LMG20218, read-out: MIC50
T5 construct: LMG20218

[4] = tested on: T6, Mycobacterium abscessus 144C; set-up: resazurin microtiter plate assay (REMA), growth inhibition in 7H9 ADS glycerol tyloxapol; conditions: Mycobacteroides abscessus, 144C, 48 h, read-out: MIC50
T6 construct: 144C

[5] = tested on: T7, Mycobacterium abscessus RIVM; set-up: resazurin microtiter plate assay (REMA), growth inhibition in 7H9 ADS glycerol tyloxapol; conditions: Mycobacteroides abscessus, 48 h, read-out: MIC50
T7 construct: RIVM

M. marinum = tested on: T8, M. marinum; set-up: Resazurin microtiter plate assay (REMA), fluorescence; MIC90 growth inhibition in HdB medium with Tween-80, 30 °C; conditions: Mycobacterium marinum, 96 h; MIC90, HdB medium with Tween-80
T8 construct: M^USA (wild type)
Experimental: The resazurin microtiter plate assay (REMA) was used to determine minimal inhibitory concentrations (MIC) of the compound toward mycobacterial species ([Palomino et al, 2002]). Selected compounds or antibiotics were diluted in the bacterial growth medium as twofold serial dilutions in a 96-well plate. Bacteria were routinely grown until the mid-logarithmic phase, harvested by centrifugation (3,000g, 10 min), washed in PBS supplemented with 0.02% tyloxapol, resuspended in the growth medium, and added to the well plate containing compound dilutions, to achieve the final OD600 of 0.001 per well. […] When the color conversion of the dye was observed, the fluorescence was measured using a BioTek plate reader (Synergy H1), bottom reading mode, and excitation 560 nm/emission 590 nm. The MIC of compounds toward E. coli, Bacillus subtilis, K. pneumoniae, and A. baumannii was determined by tracking changes in the OD600. […] Plates were sealed and incubated at 37°C with 3 mm continuous linear shaking in a BioTek plate reader (Synergy H1), and the bacterial growth was tracked by measuring the OD600 every 15 min. […] Thus, we evaluated compounds from the benzothiazole library for their in vitro activity using the HdB medium with Tween-80 by REMA (Table S6).

[6] = tested on: T9, Mycobacterium smegmatis MC^2-155; set-up: resazurin microtiter plate assay (REMA), growth inhibition in 7H9 ADS glycerol tyloxapol; conditions: Mycolicibacterium smegmatis, 24 h, read-out: MIC50
T9 construct: MC2-155

## CCOc1ccc2nc(N(Cc3ccccc3)C(C)=O)sc2c1 [BT-08, N-Benzyl-N-(6-ethoxybenzo[d]thiazol-2-yl)acetamide]
[1]
  IC50: > 40 µM
[2]
  IC50: > 40 µM
Bacillus subtilis 168
  IC50: > 40 µM
Escherichia coli K12
  IC50: > 40 µM
[3]
  IC50: > 40 µM
[4]
  IC50: > 40 µM
[5]
  IC50: > 40 µM

## CCOc1ccc2nc(N(Cc3ccccc3OC)C(C)=O)sc2c1 [BT-37]
M. marinum
  MIC90: 0.3 µM
[1]
  IC50: > 40 µM
[2]
  IC50: > 40 µM
Bacillus subtilis 168
  IC50: > 40 µM
Escherichia coli K12
  IC50: > 40 µM
[3]
  IC50: > 40 µM
[4]
  IC50: > 40 µM
[5]
  IC50: > 40 µM
[6]
  IC50: > 40 µM
